Results published in patent EP3797781A1, “USE OF EC-7072 AND SYNERGIC COMPOSITIONS THEREOF IN TREATMENT OF CHRONIC LYMPHOCYTIC LEUKEMIA” (priority 2019, dated 2021).

Test system: leukemia cells
Assay: Absolute leukemia cell number quantification by flow cytometry in PBMCs from patients with CLL
Format: cell-based, human
Conditions: 0 - 400 nM, 24 hours; PBMCs from patients with CLL (n = 13); dose-dependent; Figure 1A
Procedure: To evaluate absolute cell numbers, an equal volume of PKH26 reference microbeads (Sigma-Aldrich) was added to each sample after staining for immune subset identification. Microbeads (5x10^3) were acquired by flow cytometry and absolute numbers of each immune population within the sample were calculated. Normalized percentage values were calculated considering the control (DMSO)-treated cells as 100%.
The in vitro cytotoxic activity of EC-7072 against primary CLL cells was assessed by: • (i) incubating PBMCs isolated from patients with CLL (n = 13) following treatment with increasing concentrations of EC-7072 (0 - 400 nM) for 24 hours. Numbers of leukemia cells were evaluated by flow cytometry and normalized to their respective control (DMSO) condition for each individual patient to obtain percentage of leukemia cells (Figure 1A); • (ii) incubating PBMCs from patients with CLL (n = 10) with or without EC-7072 (100-400 nM) for 24 hours. Viability of leukemia cells was determined by cytofluorometric assessment of DiOC6(3)/PI staining and normalized to their respective control condition to obtain percentage viability (Figure 1B); • (iii) incubating PBMCs from patients with CLL (n = 10) with increasing concentrations of EC-7072 (0 - 400 nM) for 24 hours. […]

CO[C@@H]([C@@H]1Cc2cc3cc(O[C@H]4C[C@@H](O[C@H]5C[C@@H](O)[C@H](O)[C@@H](C)O5)[C@H](O)[C@@H](C)O4)c(C)c(O)c3c(O)c2C(=O)[C@H]1O[C@H]1C[C@@H](O[C@H]2C[C@@H](O[C@H]3C[C@](C)(O)[C@H](O)[C@@H](C)O3)[C@@H](O)[C@@H](C)O2)[C@H](O)[C@@H](C)O1)[C@@H](O)C(C)=O [EC-7072, mithramycin SK]
leukemia cell numbers: significantly decreased
